From ChEMBL document CHEMBL1201862, “PubChem BioAssay data set” (2004)
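Compound exposure: 48 hours, 5 concentrations, 96-well plates. GI50 = concentration required for 50% inhibition of growth.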 Calls of active or inactive are those of the source. Cut-off read from the data, not from the text of the source: active = GI50 up to about 1.1 µM and inactive = higher.

Tests used:
Test in all cases: NCI tumour cell line growth inhibition, 48 h
ACHN = test system: ACHN
CCRF-CEM = test system: CCRF-CEM
COLO 205 = test system: COLO 205
EKVX = test system: EKVX
K562 = test system: K562
KM12 = test system: KM12
LXFL 529 = test system: LXFL 529
M14 = test system: M14
NCI-H226 = test system: NCI-H226
OVCAR-5 = test system: OVCAR-5
RXF 393 = test system: RXF 393
SF-539 = test system: SF-539
SK-MEL-28 = test system: SK-MEL-28
SK-OV-3 = test system: SK-OV-3
SN12C = test system: SN12C
SNB-19 = test system: SNB-19
DU-145 = test system: DU-145
Hs-578T = test system: Hs-578T
MDA-MB-231 = test system: MDA-MB-231
T47D = test system: T47D

| SMILES | GI50 (ACHN) | GI50 (CCRF-CEM) | GI50 (COLO 205) | GI50 (EKVX) | GI50 (K562) | GI50 (KM12) | GI50 (LXFL 529) | GI50 (M14) | GI50 (NCI-H226) | GI50 (OVCAR-5) | GI50 (RXF 393) | GI50 (SF-539) | GI50 (SK-MEL-28) | GI50 (SK-OV-3) | GI50 (SN12C) | GI50 (SNB-19) | GI50 (DU-145) | GI50 (Hs-578T) | GI50 (MDA-MB-231) | GI50 (T47D) |
| --- | --- | --- | --- | --- | --- | --- | --- | --- | --- | --- | --- | --- | --- | --- | --- | --- | --- | --- | --- | --- |
| O=C1NC(=O)C2C1c1[nH]c3ccccc3c1C1CCCC12 (configuration not stated) | 22.3 µM (inactive) | 1.86 µM (inactive) | 4.23 µM (inactive) | 6.76 µM (inactive) | 0.48 µM (active) | 2.17 µM (inactive) | 6.37 µM (inactive) | 1.73 µM (inactive) | 3.61 µM (inactive) | > 100 µM (inactive) | 2.7 µM (inactive) | 3.03 µM (inactive) | 4.1 µM (inactive) | 4.49 µM (inactive) | 6.87 µM (inactive) | 5.07 µM (inactive) | – | – | – | – |
| COC1(C)Cc2c(c(C)c(O)c3c2C(=O)C=C(Cl)C3=O)O1 (configuration not stated) | 25.4 µM (inactive) | 3.39 µM (inactive) | 18.2 µM (inactive) | > 100 µM (inactive) | 8.75 µM (inactive) | > 100 µM (inactive) | 15.1 µM (inactive) | 21.8 µM (inactive) | > 100 µM (inactive) | > 100 µM (inactive) | 16 µM (inactive) | > 100 µM (inactive) | 39.7 µM (inactive) | > 100 µM (inactive) | > 65.6 µM (inactive) | > 100 µM (inactive) | 91.4 µM (inactive) | 23.5 µM (inactive) | 16.1 µM (inactive) | 13.4 µM (inactive) |
| CC(C)(C)[C@H]1CO[C@]2(c3ccccc3)[C@@H]3C[C@@H]3C(=O)N12 | > 100 µM (inactive) | > 10 µM (inactive) | > 100 µM (inactive) | > 100 µM (inactive) | > 10 µM (inactive) | > 100 µM (inactive) | > 100 µM (inactive) | > 100 µM (inactive) | > 100 µM (inactive) | > 100 µM (inactive) | > 100 µM (inactive) | > 100 µM (inactive) | > 100 µM (inactive) | > 100 µM (inactive) | > 100 µM (inactive) | > 100 µM (inactive) | – | – | – | – |
| CCOC(=O)c1c2ccc(/C=C/C(=O)OC)ccc-2c(C(=O)OCC)c1N | > 100 µM (inactive) | > 100 µM (inactive) | > 100 µM (inactive) | > 100 µM (inactive) | > 100 µM (inactive) | > 100 µM (inactive) | > 100 µM (inactive) | > 100 µM (inactive) | > 100 µM (inactive) | > 100 µM (inactive) | > 100 µM (inactive) | > 100 µM (inactive) | 1.62 µM (inactive) | > 100 µM (inactive) | – | > 100 µM (inactive) | – | – | – | – |
| O=c1[nH]cnc2c(COCCO)c[nH]c12 | > 100 µM (inactive) | > 100 µM (inactive) | > 100 µM (inactive) | > 100 µM (inactive) | > 100 µM (inactive) | > 100 µM (inactive) | > 100 µM (inactive) | > 100 µM (inactive) | > 100 µM (inactive) | > 100 µM (inactive) | > 100 µM (inactive) | > 100 µM (inactive) | > 100 µM (inactive) | > 100 µM (inactive) | > 100 µM (inactive) | > 100 µM (inactive) | – | – | – | – |
| O=C(/C=C/c1ccc(Cl)cc1)c1ccc(Cl)c(Cl)c1 | 29 µM (inactive) | 16.2 µM (inactive) | > 10 µM (inactive) | 26.4 µM (inactive) | 21.7 µM (inactive) | 9.31 µM (inactive) | 18.9 µM (inactive) | 28 µM (inactive) | 14 µM (inactive) | > 10 µM (inactive) | 15.5 µM (inactive) | 20 µM (inactive) | 17.3 µM (inactive) | 26.4 µM (inactive) | 9.1 µM (inactive) | 23.7 µM (inactive) | – | – | – | – |
| CSC(=Nc1nnc(-c2ccc([N+](=O)[O-])cc2)s1)SC | 42.9 µM (inactive) | > 100 µM (inactive) | > 100 µM (inactive) | 54.5 µM (inactive) | > 100 µM (inactive) | > 94.8 µM (inactive) | 37 µM (inactive) | > 90.6 µM (inactive) | 33.7 µM (inactive) | > 100 µM (inactive) | 20 µM (inactive) | 18.1 µM (inactive) | 77.4 µM (inactive) | 27.6 µM (inactive) | 52.2 µM (inactive) | 23.9 µM (inactive) | > 100 µM (inactive) | 28.3 µM (inactive) | > 58.5 µM (inactive) | 17.8 µM (inactive) |
| CCOC(=O)C1(C(=O)OCC)C(C(C)(C)C)=C(C)c2ccccc21 | 13.2 µM (inactive) | 13.1 µM (inactive) | 13.3 µM (inactive) | 20.1 µM (inactive) | 8.55 µM (inactive) | 12.6 µM (inactive) | 11.6 µM (inactive) | 16.1 µM (inactive) | 14.5 µM (inactive) | 14.4 µM (inactive) | 13.5 µM (inactive) | 18.2 µM (inactive) | 12.5 µM (inactive) | 24.2 µM (inactive) | 15.3 µM (inactive) | 19.9 µM (inactive) | – | – | – | – |
| COc1cc(Cl)cc(N(O)C(C)=O)c1OCc1ccccc1 | 63.4 µM (inactive) | 38.1 µM (inactive) | > 100 µM (inactive) | 30.9 µM (inactive) | 75.9 µM (inactive) | > 100 µM (inactive) | 75.9 µM (inactive) | > 100 µM (inactive) | 65.8 µM (inactive) | > 100 µM (inactive) | > 100 µM (inactive) | 83.4 µM (inactive) | > 100 µM (inactive) | 74 µM (inactive) | > 100 µM (inactive) | 80.9 µM (inactive) | – | – | – | – |
| COc1ccc(NC(=O)CC/C(CC(=O)C(C)(C)C)=N\NC(=O)C(=O)NN)cc1 | > 100 µM (inactive) | > 100 µM (inactive) | > 100 µM (inactive) | > 100 µM (inactive) | > 100 µM (inactive) | > 100 µM (inactive) | > 100 µM (inactive) | > 100 µM (inactive) | > 100 µM (inactive) | > 100 µM (inactive) | > 100 µM (inactive) | > 100 µM (inactive) | > 100 µM (inactive) | > 100 µM (inactive) | > 100 µM (inactive) | > 100 µM (inactive) | – | – | – | – |
